In ChEMBL document CHEMBL4033613, “Rearranged Terpenoids from the Marine Sponge Darwinella cf. oxeata and Its Predator, the Nudibranch Felimida grahami” (J Nat Prod, 2017):

Experiments:
Trypanosoma cruzi [1] = assay: Antitrypanosomal activity against Trypanosoma cruzi trypomastigotes; format: functional
Trypanosoma cruzi [2] = assay: Antitrypanosomal activity against Trypanosoma cruzi intracellular amastigotes; format: functional, cell-based
[3] = Cytotoxicity against mammalian NCTC cells; format: functional; settings: Mammalia
[4] = Trypanosoma cruzi, read-out: IC50

IC50 (Trypanosoma cruzi [1]) | IC50 (Trypanosoma cruzi [2]) | IC50 (Trypanosoma cruzi [1]; [4]) | IC50 (Trypanosoma cruzi [2]; [4]) | SMILES | CC50 [3]
Not Active | Not Active |  |  | C[C@@H](C(=O)O)c1c([C@@]2(C)CCCC(C)(C)C2)ccc2c1CN(CC(=O)O)C2=O | 
Not Active | Not Active |  |  | C[C@@H](C(=O)O)c1c([C@@]2(C)CCCC(C)(C)C2)ccc2c1CN(C)C2=O | 
 |  | 29 µM | 20 µM | COC(=O)[C@H](C)c1c([C@@]2(C)CCCC(C)(C)C2)ccc2c1C(=O)OC2 | 54 µM
